Data taken from the supplement of paper PMC10307832.

Experiments:
Test in all cases: relative viability (nuclei count vs DMSO), 5 days (fraction); higher = more cells survive
Mirin + Vorinostat = compound: N=C1NC(=O)/C(=C/c2ccc(O)cc2)S1 [Mirin] + O=C(CCCCCCC(=O)Nc1ccccc1)NO [Vorinostat] (partner 1 µM)
Outline: (§1)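 Lung cancer cell lines, seeded in 1536-well plates, were treated the following day by pin tool with a single drug or with five library-drug doses (not always all listed) in √10 steps on top of a fixed anchor-drug dose. Cells were fixed and nuclei stained in one step after 5 days, and nuclei were counted. Relative viability is the nuclei count for treated wells divided by that for vehicle wells, reported as medians of duplicate plates.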

Mirin + Crizotinib = compound: N=C1NC(=O)/C(=C/c2ccc(O)cc2)S1 [Mirin] + C[C@@H](Oc1cc(-c2cnn(C3CCNCC3)c2)cnc1N)c1c(Cl)ccc(F)c1Cl [Crizotinib] (partner 1 µM)
Outline: as §1

[1] = compound: CCn1c(-c2nonc2N)nc2cnc(Oc3cccc(NC(=O)c4ccc(OCCN5CCOCC5)cc4)c3)cc21 + Cc1cc(Nc2cc(N3CCN(C)CC3)nc(Sc3ccc(NC(=O)C4CC4)cc3)n2)n[nH]1 [Tozasertib] (partner 0.1 µM)
Outline: as §1

[2] = compound: CCC1=CN=CN=C1N2CCN(CC2)CC3=NC4=C(N3)C=C(C=C4)C(F)(F)F + COc1cccc2cc(-c3nc([C@H]4CC[C@H](C(=O)O)CC4)n4ncnc(N)c34)[nH]c12 [OSI-027] (partner 0.5 µM)
Outline: as §1

Cell Line	relative viability (Mirin + Vorinostat; first compound 0.25 µM)	relative viability (Mirin + Vorinostat; first compound 0.7906 µM)	relative viability (Mirin + Vorinostat; first compound 2.5 µM)	relative viability (Mirin + Vorinostat; first compound 7.906 µM)	relative viability (Mirin + Vorinostat; first compound 25 µM)	relative viability (Mirin + Crizotinib; first compound 0.25 µM)	relative viability (Mirin + Crizotinib; first compound 0.7906 µM)	relative viability (Mirin + Crizotinib; first compound 2.5 µM)	relative viability (Mirin + Crizotinib; first compound 7.906 µM)	relative viability (Mirin + Crizotinib; first compound 25 µM)	relative viability ([1]; first compound 0.04 µM)	relative viability ([1]; first compound 0.1265 µM)	relative viability ([1]; first compound 0.4 µM)	relative viability ([1]; first compound 1.265 µM)	relative viability ([1]; first compound 4 µM)	relative viability ([2]; first compound 0.04 µM)	relative viability ([2]; first compound 0.1265 µM)	relative viability ([2]; first compound 0.4 µM)	relative viability ([2]; first compound 4 µM)	relative viability ([2]; first compound 1.265 µM)
NCI-H596	0.727	0.474	0.641	0.758	0.589	0.953	0.891	1.08	1.07	1.09	1.24	0.945	0.828	0.743	1.01	0.723	0.683	0.743	0.915	–
LCLC-97TM1	0.887	0.204	0.743	0.697	0.679	0.316	0.317	0.259	0.218	0.233	0.201	0.271	0.192	0.249	0.222	0.477	0.582	0.452	0.577	0.506
NCI-H2170	0.621	0.828	0.906	0.665	0.859	1.19	1.22	1.37	1.15	0.959	0.743	0.651	0.786	0.553	0.515	0.672	0.682	0.752	0.726	0.732
NCI-H322M	1	0.87	0.93	1.28	1.11	0.797	1.04	0.874	0.905	0.756	0.481	0.466	0.459	0.366	0.403	0.608	0.495	0.59	0.527	0.449
PC-3 [JPC-3]	0.919	0.722	0.81	0.86	1.18	1	1.1	1.02	1.03	1.11	0.94	0.866	1.03	0.861	0.77	0.65	0.67	0.705	0.728	0.731
EPLC-272H	0.415	0.549	0.487	0.349	0.192	0.83	–	0.853	0.671	0.779	0.152	0.394	0.26	0.306	0.223	0.255	0.302	0.264	0.276	0.308
A-427	0.84	0.922	0.904	0.878	0.956	0.87	–	0.809	0.881	0.958	0.189	0.234	0.228	0.182	0.186	0.432	0.476	0.413	0.417	0.434
